Measurements from ChEMBL document CHEMBL3885861, “Open TG-GATES”.

Species: Rattus norvegicus
Assay: Open TG-GATES - Regimen: Daily Repeat
Format: toxicity, organism-based, Sprague-Dawley
Design: regimen Daily Repeat, gender Male, age 6 weeks
Settings: in vivo, po, route gavage; for APTT / Bas / Eos / Fbg / Ht / MCH / MCHC / MCV / Mono / Neu / PT / RBC / Ret: tissue Blood; for KIDNEY_L / KIDNEY_R / KIDNEY_TOTAL: tissue Kidney; for ALP / ALT / AST / BUN / CRE / Ca / Cl / DBIL / GLC / IP / K / LDH / Na / PL / RALB / TBIL / TC / TG / TP / gamma-GTP: tissue Plasma
[1] = 0 mg/kg, 72 h, dose level Control, time 3 day
[2] = 0 mg/kg, […], dose level Control, time 7 day
[3] = 0 mg/kg, […], dose level Control, time 14 day
[4] = 0 mg/kg, […], dose level Control, time 28 day
[5] = 60 mg/kg, 72 h, dose level Low, time 3 day
[6] = 60 mg/kg, […], dose level Low, time 7 day
[7] = 60 mg/kg, […], dose level Low, time 14 day
[8] = 60 mg/kg, […], dose level Low, time 28 day

## CC(=O)Nc1nnc(S(N)(=O)=O)s1 [ACETAZOLAMIDE]
[1]
  TERMINAL_BW: 229 g
  APTT: 21.2 s
  Bas: 0%
  Eos: 1%
  Fbg: 302.2 mg/dL
  Ht: 39.4%
  MCH: 21.3 pg
  MCHC: 34%
  MCV: 62.8 fL
  Mono: 3%
  Neu: 16%
  PT: 17 s
  RBC: 628.2 x10_4/ul
  Ret: 6.9%
  KIDNEY_L: 1 g
  KIDNEY_R: 1 g
  KIDNEY_TOTAL: 2 g
  ALP: 1759.2 IU/L
  ALT: 45.6 IU/L
  AST: 81.2 IU/L
  BUN: 17.8 mg/dL
  CRE: 0.1 mg/dL
  Ca: 10.8 mg/dL
  Cl: 106.6 meq/L
  DBIL: 0 mg/dL
  GLC: 193.6 mg/dL
  IP: 7.5 mg/dL
  K: 4.3 meq/L
  LDH: 208.8 IU/L
  Na: 142 meq/L
  PL: 135 mg/dL
  RALB: 3.1 g/dL
  TBIL: 0.008 mg/dL
  TC: 71.2 mg/dL
  TG: 86.2 mg/dL
  TP: 5.5 g/dL
  gamma-GTP: 1.8 IU/L
[2]
  TERMINAL_BW: 260.7 g
  APTT: 21.8 s
  Bas: 0%
  Eos: 0.8%
  Ht: 39.7%
  MCH: 21.9 pg
  MCHC: 35.8%
  MCV: 61.1 fL
  Mono: 2.4%
  Neu: 11.8%
  PT: 16.1 s
  RBC: 650.4 x10_4/ul
  Ret: 5.7%
  KIDNEY_L: 1 g
  KIDNEY_R: 1.1 g
  KIDNEY_TOTAL: 2.1 g
  ALP: 1905.2 IU/L
  ALT: 37.6 IU/L
  AST: 72.6 IU/L
  BUN: 22 mg/dL
  CRE: 0.2 mg/dL
  Ca: 10.8 mg/dL
  Cl: 106.4 meq/L
  DBIL: 0 mg/dL
  GLC: 203 mg/dL
  IP: 6.9 mg/dL
  K: 4.7 meq/L
  LDH: 193.6 IU/L
  Na: 142.2 meq/L
  PL: 132.6 mg/dL
  RALB: 3.1 g/dL
  TBIL: 0.002 mg/dL
  TC: 63.2 mg/dL
  TG: 101.8 mg/dL
  TP: 5.3 g/dL
  gamma-GTP: 1.6 IU/L
[3]
  TERMINAL_BW: 306.6 g
  APTT: 23.3 s
  Bas: 0%
  Eos: 0.8%
  Fbg: 297.2 mg/dL
  Ht: 40%
  MCH: 20.5 pg
  MCHC: 35.3%
  MCV: 58.2 fL
  Mono: 2.2%
  Neu: 14%
  PT: 16.5 s
  RBC: 688.2 x10_4/ul
  Ret: 5.1%
  KIDNEY_L: 1.2 g
  KIDNEY_R: 1.2 g
  KIDNEY_TOTAL: 2.4 g
  ALP: 1570.4 IU/L
  AST: 67.2 IU/L
  BUN: 19.8 mg/dL
  CRE: 0.2 mg/dL
  Ca: 10.6 mg/dL
  DBIL: 0 mg/dL
  GLC: 197.6 mg/dL
  IP: 7.4 mg/dL
  K: 4.3 meq/L
  LDH: 171.4 IU/L
  Na: 143.6 meq/L
  PL: 142.4 mg/dL
  RALB: 3.1 g/dL
  TBIL: 0.002 mg/dL
  TC: 67 mg/dL
  TP: 5.7 g/dL
  gamma-GTP: 2.4 IU/L
[4]
  TERMINAL_BW: 366.7 g
  APTT: 25.9 s
  Bas: 0%
  Eos: 0.6%
  Fbg: 316 mg/dL
  Ht: 44%
  MCH: 19 pg
  MCHC: 34.3%
  MCV: 55.6 fL
  Mono: 2%
  Neu: 12.4%
  RBC: 791.4 x10_4/ul
  Ret: 2.8%
  KIDNEY_L: 1.3 g
  KIDNEY_R: 1.3 g
  KIDNEY_TOTAL: 2.6 g
  ALP: 1140.2 IU/L
  ALT: 40.6 IU/L
  AST: 63.8 IU/L
  BUN: 18.8 mg/dL
  CRE: 0.2 mg/dL
  Cl: 105.4 meq/L
  DBIL: 0 mg/dL
  GLC: 207.8 mg/dL
  IP: 6.2 mg/dL
  K: 4.1 meq/L
  LDH: 138.8 IU/L
  Na: 142.6 meq/L
  RALB: 3.3 g/dL
  TBIL: 0.004 mg/dL
  TC: 69.8 mg/dL
  TG: 178.4 mg/dL
  TP: 6.1 g/dL
  gamma-GTP: 2.2 IU/L
[5]
  TERMINAL_BW: 226.3 g
  APTT: 20.3 s
  Bas: 0%
  Eos: 1%
  Fbg: 272.8 mg/dL
  Ht: 39.2%
  MCHC: 34%
  MCV: 60.6 fL
  Mono: 2.6%
  Neu: 15.4%
  PT: 16.8 s
  RBC: 648.4 x10_4/ul
  Ret: 5.3%
  KIDNEY_L: 1 g
  KIDNEY_R: 1 g
  KIDNEY_TOTAL: 2 g
  ALP: 1702 IU/L
  ALT: 42.2 IU/L
  AST: 67.4 IU/L
  BUN: 17 mg/dL
  CRE: 0.2 mg/dL
  Ca: 10.6 mg/dL
  Cl: 106.4 meq/L
  DBIL: 0 mg/dL
  GLC: 185.4 mg/dL
  IP: 7.3 mg/dL
  K: 4.1 meq/L
  LDH: 188.6 IU/L
  Na: 142.8 meq/L
  RALB: 2.9 g/dL
  TBIL: 0 mg/dL
  TC: 73.6 mg/dL
  TG: 137.8 mg/dL
  TP: 5.2 g/dL
  gamma-GTP: 1.4 IU/L
[6]
  TERMINAL_BW: 265.9 g
  APTT: 20.2 s
  Bas: 0%
  Eos: 0.8%
  Fbg: 299.4 mg/dL
  Ht: 37%
  MCH: 21.7 pg
  MCV: 61 fL
  Mono: 2.4%
  Neu: 13.4%
  PT: 16.1 s
  RBC: 606.4 x10_4/ul
  Ret: 6.9%
  KIDNEY_L: 1.2 g
  KIDNEY_R: 1.3 g
  KIDNEY_TOTAL: 2.5 g
  ALP: 1603.6 IU/L
  ALT: 40.6 IU/L
  AST: 69 IU/L
  BUN: 19.6 mg/dL
  CRE: 0.1 mg/dL
  Ca: 10.6 mg/dL
  Cl: 107.4 meq/L
  DBIL: 0 mg/dL
  GLC: 192.2 mg/dL
  IP: 7.2 mg/dL
  K: 4.2 meq/L
  LDH: 140.4 IU/L
  Na: 143.8 meq/L
  PL: 139.6 mg/dL
  RALB: 3 g/dL
  TBIL: 0.002 mg/dL
  TC: 71.8 mg/dL
  TG: 127 mg/dL
  TP: 5.2 g/dL
  gamma-GTP: 1.8 IU/L
[7]
  TERMINAL_BW: 293.1 g
  APTT: 22.7 s
  Bas: 0%
  Eos: 0.8%
  Fbg: 302.4 mg/dL
  MCHC: 35.9%
  MCV: 57.5 fL
  Mono: 2.2%
  Neu: 12.8%
  RBC: 687.6 x10_4/ul
  Ret: 4.3%
  KIDNEY_L: 1.2 g
  KIDNEY_R: 1.2 g
  KIDNEY_TOTAL: 2.4 g
  ALP: 1453.4 IU/L
  ALT: 41.2 IU/L
  AST: 65 IU/L
  BUN: 17 mg/dL
  CRE: 0.2 mg/dL
  Ca: 10.5 mg/dL
  Cl: 105.8 meq/L
  DBIL: 0 mg/dL
  GLC: 185.2 mg/dL
  IP: 6.7 mg/dL
  K: 3.8 meq/L
  LDH: 123.6 IU/L
  Na: 144 meq/L
  PL: 140.8 mg/dL
  RALB: 3 g/dL
  TBIL: 0.002 mg/dL
  TC: 65.8 mg/dL
  TG: 152.6 mg/dL
  TP: 5.5 g/dL
  gamma-GTP: 2 IU/L
[8]
  TERMINAL_BW: 367.2 g
  APTT: 23.2 s
  Bas: 0%
  Eos: 1%
  Fbg: 311 mg/dL
  Ht: 42.3%
  MCH: 19.2 pg
  MCHC: 34.3%
  MCV: 56 fL
  Mono: 1.6%
  Neu: 12%
  RBC: 755.4 x10_4/ul
  Ret: 2.9%
  KIDNEY_L: 1.4 g
  KIDNEY_R: 1.5 g
  KIDNEY_TOTAL: 2.9 g
  ALP: 1253 IU/L
  ALT: 41 IU/L
  AST: 63 IU/L
  BUN: 19 mg/dL
  CRE: 0.2 mg/dL
  Ca: 10.5 mg/dL
  Cl: 106.8 meq/L
  DBIL: 0 mg/dL
  GLC: 184.2 mg/dL
  IP: 6.2 mg/dL
  K: 4 meq/L
  LDH: 129 IU/L
  Na: 143 meq/L
  PL: 142.8 mg/dL
  RALB: 3.1 g/dL
  TBIL: 0.002 mg/dL
  TC: 70.8 mg/dL
  TG: 159.2 mg/dL
  TP: 5.9 g/dL
  gamma-GTP: 2.2 IU/L
200 mg/kg, 72 h, dose level Middle, time 3 day
  TERMINAL_BW: 215.5 g
